Literature values as cited in EP4732833A1, “ROPIVACAINE MICROSPHERE AND PREPARATION METHOD THEREFOR” (Bostal Drug Delivery Co., Ltd., priority 2023, dated 2025).

Details: background statement

CCCN1CCCC[C@H]1C(=O)Nc1c(C)cccc1C [Ropivacaine, (S)-N-(2,6-dimethylphenyl)-1-propylpiperidine-2-carboxamide]
plasma half-life: 1.8 h
